The experiment concerns the target human ALK5 (Homo sapiens (Human), UniProt P36897). Description: ADP-GLO Kinases assay, inhibition of ALK5 kinase activity. It is filed as biochemical. On the procedure: The enzymatic activity of compounds of the present invention was monitored measuring the formation of ADP using the ADP-GLO Kinases assay. Following the incubation of the purified enzyme, a substrate and ATP, the produced ADP was converted into ATP, which in turn was converted into light by Ultra-Glo Luciferase. The luminescent signal positively correlated with ADP amount and kinase activity. Briefly, the kinase reaction was performed by incubating 2.6 nM of the purified, commercially available human ALK5 (recombinant TGF 31 N-term GST-tagged, 80-end), a final concentration of TGFβ1 peptide 94.5 μM (Promega, T36-58) and ultra-pure ATP (Promega V915B). The ATP concentration was set at the Km value (concentration of substrate which permits the enzyme to achieve half maximal velocity (Vmax)) of ALK5 (5 μM). All reactions/incubations were performed at 25° C. Compound and ALK5 kinase were mixed and incubated for 15 mins. Reactions were initiated by addition of ATP at a final concentration in the assay of […]. After an incubation of 150 min, the reaction was stopped, and ADP production detected with ADP-Glo kit according to manufacturer's indications. The assay was performed in 384-well format and was validated using a selection of reference compounds that was tested in 11 point concentration-response curve.
Compounds of the examples C1 and C2 were tested in the same in vitro assay described above.
A general note: ADP-Glo first removes unused ATP, then detects ADP through luciferase.

The mark [1] stands for this setting: Table 12, compounds classified in term of potency, ATP at Km, 25° C., read-out: ALK5 IC50.

Like-named read-outs stand apart in the source and are kept apart here. Where only a bound is given, the exact number is not on record here.

Chain of human ALK5 (P36897 80-503 limits assumed): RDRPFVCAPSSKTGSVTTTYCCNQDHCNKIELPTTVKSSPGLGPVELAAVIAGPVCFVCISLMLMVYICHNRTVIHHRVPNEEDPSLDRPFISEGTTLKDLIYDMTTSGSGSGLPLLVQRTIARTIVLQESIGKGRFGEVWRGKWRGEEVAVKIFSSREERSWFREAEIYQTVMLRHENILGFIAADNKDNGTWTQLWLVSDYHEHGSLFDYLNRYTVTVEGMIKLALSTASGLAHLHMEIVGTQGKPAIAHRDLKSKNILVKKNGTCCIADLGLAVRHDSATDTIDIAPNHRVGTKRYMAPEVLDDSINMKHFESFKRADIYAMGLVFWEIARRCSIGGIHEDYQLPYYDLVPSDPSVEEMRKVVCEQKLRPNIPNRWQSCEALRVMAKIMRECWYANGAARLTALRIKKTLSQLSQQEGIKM

Take `O=C(CCN(CCO)CCO)Nc1cncc(-c2cc(-c3cc(Cl)ccc3F)nc3c2OCCN3)c1` [Example 43, 3-[bis(2-hydroxyethyl)amino]-N-{5-[6-(5-chloro-2-fluorophenyl)-2H,3H,4H-pyrido[3,2-b][1,4]oxazin-8-yl]pyridin-3-yl}propanamide]: the IC50 under setting [1] fell in the range of 1 to 5 nM.
Take `Cc1csc(-c2cc(-c3cncc4ccccc34)c3c(n2)NCCO3)n1` [Example 4, 4-[6-(4-methyl-1,3-thiazol-2-yl)-2H,3H,4H-pyrido[3,2-b][1,4]oxazin-8-yl]isoquinoline]: the IC50 under setting [1] fell in the range of 1 to 5 nM.
The same measure, in the same setting: as for `Fc1ccc(Cl)cc1-c1cc(-c2cnc3[nH]ncc3c2)c2c(n1)NCCO2` [Example 10, 6-(5-chloro-2-fluorophenyl)-8-{1H-pyrazolo[3,4-b]pyridin-5-yl}-2H,3H,4H-pyrido[3,2-b][1,4]oxazine], the figure is not above 1 nM; as for `CN1CCN(CCC(=O)Nc2cncc(-c3cc(-c4cc(Cl)ccc4F)nc4c3OCCN4)c2)C(=O)C1` [Example 47, N-{5-[6-(5-chloro-2-fluorophenyl)-2H,3H,4H-pyrido[3,2-b][1,4]oxazin-8-yl]pyridin-3-yl}-3-(4-methyl-2-oxopiperazin-1-yl)propanamide], 5 to 10 nM; as for `COC(=O)c1cncc(-c2cc(-c3cc(Cl)ccc3F)nc3c2OCCN3)c1` [Example 19, Methyl 5-[6-(5-chloro-2-fluorophenyl)-2H,3H,4H-pyrido[3,2-b][1,4]oxazin-8-yl]pyridine-3-carboxylate], 1 to 5 nM.
Same read-out and setting: as for `Oc1cncc(-c2cc(-c3cc(Cl)ccc3F)nc3c2OCCN3)c1` [Example 29, 5-[6-(5-chloro-2-fluorophenyl)-2H,3H,4H-pyrido[3,2-b][1,4]oxazin-8-yl]pyridin-3-ol], the figure is 1 to 5 nM; as for `CN(C)CCCNc1cncc(-c2cc(-c3cc(Cl)ccc3F)nc3c2OCCN3)c1` [Example 30, 5-[6-(5-chloro-2-fluorophenyl)-2H,3H,4H-pyrido[3,2-b][1,4]oxazin-8-yl]-N-[3-(dimethylamino)propyl]pyridin-3-amine], 1 to 5 nM; as for `CN(C)CCOC(=O)c1cncc(-c2cc(-c3cc(Cl)ccc3F)nc3c2OCCN3)c1` [Example 24, 2-(dimethylamino)ethyl 5-[6-(5-chloro-2-fluorophenyl)-2H,3H,4H-pyrido[3,2-b][1,4]oxazin-8-yl]pyridine-3-carboxylate], 1 to 5 nM.
The same measure, in the same setting: as for `CNCCCNC(=O)c1cncc(-c2cc(-c3cc(Cl)ccc3F)nc3c2OCCN3)c1` [Example 32, 5-[6-(5-chloro-2-fluorophenyl)-2H,3H,4H-pyrido[3,2-b][1,4]oxazin-8-yl]-N-[3-(methylamino)propyl]pyridine-3-carboxamide], the figure is 1 to 5 nM.
Consider `O=C(NCCN1CCNCC1)c1cncc(-c2cc(-c3cc(Cl)ccc3F)nc3c2OCCN3)c1` [Example 20, 5-[6-(5-chloro-2-fluorophenyl)-2H,3H,4H-pyrido[3,2-b][1,4]oxazin-8-yl]-N-[2-(piperazin-1-yl)ethyl]pyridine-3-carboxamide], for which the IC50 under setting [1] lay in the range of 1 to 5 nM.
Consider `CNC(=O)c1cncc(-c2cc(-c3cc(Cl)ccc3F)nc3c2OCCN3)c1` [Example 7, 5-[6-(5-chloro-2-fluorophenyl)-2H,3H,4H-pyrido[3,2-b][1,4]oxazin-8-yl]-N-methylpyridine-3-carboxamide], for which the IC50 under setting [1] lay within 5 to 10 nM.
Same read-out and setting: as for `O=C(NCCN1CCCC1)c1cncc(-c2cc(-c3cc(Cl)ccc3F)nc3c2OCCN3)c1` [Example 26, 5-[6-(5-chloro-2-fluorophenyl)-2H,3H,4H-pyrido[3,2-b][1,4]oxazin-8-yl]-N-[2-(pyrrolidin-1-yl)ethyl]pyridine-3-carboxamide], the figure is 5 to 10 nM.
In the case of `COC(=O)c1cncc(-c2cc(-c3cccc(C)n3)nc3c2OCCN3)c1` [Example 39, Methyl 5-[6-(6-methylpyridin-2-yl)-2H,3H,4H-pyrido[3,2-b][1,4]oxazin-8-yl]pyridine-3-carboxylate], the IC50 under setting [1] lay in the range of 5 to 10 nM.
Turning to `Oc1ccc(-c2cc(-c3cc(Cl)ccc3F)nc3c2OCCN3)cc1` [Example C2, 4-[6-(5-chloro-2-fluorophenyl)-2H,3H,4H-pyrido[3,2-b][1,4]oxazin-8-yl]phenol], the IC50 is, setting by setting: (Table 13, comparative examples, same in vitro assay, read-out: ALK5 IC50) 1710 nM; (summary statements in running text, read-out: IC50 / potency on ALK5) more than 1700 nM.

Values taken from US20240116948A1, “PYRIDO OXAZINE DERIVATIVES AS ALK5 INHIBITORS” (CHIESI FARMACEUTICI S.P.A., priority 2020, published 2024).
